System: Chenopodium album
Test: Test Example 1 upland field foliage treatment
Format: in vivo
Conditions: Table 4, upland field foliage treatment, index 0-5
Outline: (§1)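 Seeds sown in upland soil in pots and covered with about 1 cm soil; on day 14 after sowing, diluted wettable powder applied uniformly to leaves at 1 kg active ingredient per hectare. Weed control or crop phytotoxicity scored visually 21 days after application on a 0–5 scale (5 = ≥90%, 0 = <10%).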

| Structure (SMILES) | Herbicidal activity CA: Chenopodium album |
| --- | --- |
| CON=C(Cn1cc(C)c(-c2ccccc2)n1)C(=O)NC1CCCCC1 [Compound 24] | 4 (herbicidal effect of not less than 70% and less than 90%, or phytotoxicity of 70% or more and less than 90%) |
| C=CCNC(=O)C(Cn1cc(C)c(-c2ccccc2)n1)=NOC [Compound 26] | 5 (herbicidal effect of not less than 90%, or phytotoxicity of 90% or more) |

System: Digitaria adscendens
Test: Test Example 1 upland field foliage treatment
Format: in vivo
Conditions: Table 4, upland field foliage treatment, index 0-5
Outline: as §1

| Structure (SMILES) | Herbicidal activity DA: Digitaria adscendens |
| --- | --- |
| CON=C(Cn1cc(C)c(-c2ccccc2)n1)C(=O)NC1CCCCC1 [Compound 24] | 3 (herbicidal effect of not less than 50% and less than 70%, or phytotoxicity of 50% or more and less than 70%) |
| C=CCNC(=O)C(Cn1cc(C)c(-c2ccccc2)n1)=NOC [Compound 26] | 5 (herbicidal effect of not less than 90%, or phytotoxicity of 90% or more) |

System: Setaria viridis
Test: Test Example 1 upland field foliage treatment
Format: in vivo
Conditions: Table 4, upland field foliage treatment, index 0-5
Outline: as §1

| Structure (SMILES) | Herbicidal activity SV: Setaria viridis |
| --- | --- |
| CON=C(Cn1cc(C)c(-c2ccccc2)n1)C(=O)NC1CCCCC1 [Compound 24] | 4 (herbicidal effect of not less than 70% and less than 90%, or phytotoxicity of 70% or more and less than 90%) |
| C=CCNC(=O)C(Cn1cc(C)c(-c2ccccc2)n1)=NOC [Compound 26] | 4 (herbicidal effect of not less than 70% and less than 90%, or phytotoxicity of 70% or more and less than 90%) |

System: Stellaria media
Test: Test Example 1 upland field foliage treatment
Format: in vivo
Conditions: Table 4, upland field foliage treatment, index 0-5
Outline: as §1

| Structure (SMILES) | Herbicidal activity SM: Stellaria media |
| --- | --- |
| CON=C(Cn1cc(C)c(-c2ccccc2)n1)C(=O)NC1CCCCC1 [Compound 24] | 4 (herbicidal effect of not less than 70% and less than 90%, or phytotoxicity of 70% or more and less than 90%) |
| C=CCNC(=O)C(Cn1cc(C)c(-c2ccccc2)n1)=NOC [Compound 26] | 5 (herbicidal effect of not less than 90%, or phytotoxicity of 90% or more) |

System: soybean (Glycine max)
Test: Test Example 1 upland field foliage treatment, crop phytotoxicity
Format: in vivo
Conditions: Table 4, upland field foliage treatment, index 0-5
Outline: as §1

| Structure (SMILES) | Herbicidal activity (phytotoxicity) GM: Soybean (Glycine max) |
| --- | --- |
| CON=C(Cn1cc(C)c(-c2ccccc2)n1)C(=O)NC1CCCCC1 [Compound 24] | 0 (herbicidal effect of not less than 0% and less than 10%, or phytotoxicity of 0% or more and less than 10%) |
| C=CCNC(=O)C(Cn1cc(C)c(-c2ccccc2)n1)=NOC [Compound 26] | 0 (herbicidal effect of not less than 0% and less than 10%, or phytotoxicity of 0% or more and less than 10%) |

System: wheat (Triticum aestivum)
Test: as above
Format: in vivo
Conditions: Table 4, upland field foliage treatment, index 0-5
Outline: as §1

| Structure (SMILES) | Herbicidal activity (phytotoxicity) TA: Wheat (Triticum aestivum) |
| --- | --- |
| CON=C(Cn1cc(C)c(-c2ccccc2)n1)C(=O)NC1CCCCC1 [Compound 24] | 0 (herbicidal effect of not less than 0% and less than 10%, or phytotoxicity of 0% or more and less than 10%) |
| C=CCNC(=O)C(Cn1cc(C)c(-c2ccccc2)n1)=NOC [Compound 26] | 0 (herbicidal effect of not less than 0% and less than 10%, or phytotoxicity of 0% or more and less than 10%) |

System: Chenopodium album
Test: Test Example 2 upland soil treatment
Format: in vivo
Conditions: Table 5, upland soil treatment, index 0-5
Outline: (§2)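 Score 0–5 read at day 21 (5 = ≥90% effect or phytotoxicity, 0 = <10%). Wettable powder diluted in water to 1 kg a.i./ha, applied uniformly to upland soil one day after sowing; seeds covered with ~1 cm soil.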

| Structure (SMILES) | Herbicidal activity CA: Chenopodium album |
| --- | --- |
| CON=C(Cn1cc(C)c(-c2ccccc2)n1)C(=O)NC1CCCCC1 [Compound 24] | 5 (herbicidal effect of not less than 90%, or phytotoxicity of 90% or more) |
| C=CCNC(=O)C(Cn1cc(C)c(-c2ccccc2)n1)=NOC [Compound 26] | 5 (herbicidal effect of not less than 90%, or phytotoxicity of 90% or more) |

System: Digitaria adscendens
Test: Test Example 2 upland soil treatment
Format: in vivo
Conditions: Table 5, upland soil treatment, index 0-5
Outline: as §2

| Structure (SMILES) | Herbicidal activity DA: Digitaria adscendens |
| --- | --- |
| CON=C(Cn1cc(C)c(-c2ccccc2)n1)C(=O)NC1CCCCC1 [Compound 24] | 3 (herbicidal effect of not less than 50% and less than 70%, or phytotoxicity of 50% or more and less than 70%) |
| C=CCNC(=O)C(Cn1cc(C)c(-c2ccccc2)n1)=NOC [Compound 26] | 5 (herbicidal effect of not less than 90%, or phytotoxicity of 90% or more) |

System: Setaria viridis
Test: Test Example 2 upland soil treatment
Format: in vivo
Conditions: Table 5, upland soil treatment, index 0-5
Outline: as §2

| Structure (SMILES) | Herbicidal activity SV: Setaria viridis |
| --- | --- |
| CON=C(Cn1cc(C)c(-c2ccccc2)n1)C(=O)NC1CCCCC1 [Compound 24] | 4 (herbicidal effect of not less than 70% and less than 90%, or phytotoxicity of 70% or more and less than 90%) |
| C=CCNC(=O)C(Cn1cc(C)c(-c2ccccc2)n1)=NOC [Compound 26] | 4 (herbicidal effect of not less than 70% and less than 90%, or phytotoxicity of 70% or more and less than 90%) |

System: Stellaria media
Test: Test Example 2 upland soil treatment
Format: in vivo
Conditions: Table 5, upland soil treatment, index 0-5
Outline: as §2

| Structure (SMILES) | Herbicidal activity SM: Stellaria media |
| --- | --- |
| CON=C(Cn1cc(C)c(-c2ccccc2)n1)C(=O)NC1CCCCC1 [Compound 24] | 4 (herbicidal effect of not less than 70% and less than 90%, or phytotoxicity of 70% or more and less than 90%) |
| C=CCNC(=O)C(Cn1cc(C)c(-c2ccccc2)n1)=NOC [Compound 26] | 5 (herbicidal effect of not less than 90%, or phytotoxicity of 90% or more) |

System: soybean (Glycine max)
Test: Test Example 2 upland soil treatment, crop phytotoxicity
Format: in vivo
Conditions: Table 5, upland soil treatment, index 0-5
Outline: as §2

| Structure (SMILES) | Herbicidal activity (phytotoxicity) GM: Soybean (Glycine max) |
| --- | --- |
| CON=C(Cn1cc(C)c(-c2ccccc2)n1)C(=O)NC1CCCCC1 [Compound 24] | 0 (herbicidal effect of not less than 0% and less than 10%, or phytotoxicity of 0% or more and less than 10%) |
| C=CCNC(=O)C(Cn1cc(C)c(-c2ccccc2)n1)=NOC [Compound 26] | 0 (herbicidal effect of not less than 0% and less than 10%, or phytotoxicity of 0% or more and less than 10%) |

System: wheat (Triticum aestivum)
Test: as above
Format: in vivo
Conditions: Table 5, upland soil treatment, index 0-5
Outline: as §2

| Structure (SMILES) | Herbicidal activity (phytotoxicity) TA: Wheat (Triticum aestivum) |
| --- | --- |
| CON=C(Cn1cc(C)c(-c2ccccc2)n1)C(=O)NC1CCCCC1 [Compound 24] | 0 (herbicidal effect of not less than 0% and less than 10%, or phytotoxicity of 0% or more and less than 10%) |
| C=CCNC(=O)C(Cn1cc(C)c(-c2ccccc2)n1)=NOC [Compound 26] | 0 (herbicidal effect of not less than 0% and less than 10%, or phytotoxicity of 0% or more and less than 10%) |

System: Ammannia multiflora
Test: Test Example 3 paddy field treatment
Format: in vivo
Conditions: paddy field treatment, wettable powder, active ingredient 1 kg per hectare, 21st day after the dropping, index 0-5
Outline: (§3)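 Weed seeds sown in puddled paddy soil under 4 cm water, with two-leaf Koshihikari rice transplanted; 10 days later a wettable powder was applied to the water surface at 1 kg active ingredient/ha. Scored 21 days after application on a 0–5 scale (0 = <10%, 5 = ≥90% herbicidal effect or phytotoxicity).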

| Structure (SMILES) | Herbicidal activity AM |
| --- | --- |
| CON=C(Cn1cc(C)c(-c2ccccc2)n1)C(=O)NC1CCCCC1 [Compound 24] | 4 (herbicidal effect of not less than 70% and less than 90%, or phytotoxicity of 70% or more and less than 90%) |
| C=CCNC(=O)C(Cn1cc(C)c(-c2ccccc2)n1)=NOC [Compound 26] | 5 (herbicidal effect of not less than 90%, or phytotoxicity of 90% or more) |

System: Echinochloa crusgalli
Test: Test Example 3 paddy field treatment
Format: in vivo
Conditions: paddy field treatment, wettable powder, active ingredient 1 kg per hectare, 21st day after the dropping, index 0-5
Outline: as §3

| Structure (SMILES) | Herbicidal activity EC |
| --- | --- |
| CON=C(Cn1cc(C)c(-c2ccccc2)n1)C(=O)NC1CCCCC1 [Compound 24] | 4 (herbicidal effect of not less than 70% and less than 90%, or phytotoxicity of 70% or more and less than 90%) |
| C=CCNC(=O)C(Cn1cc(C)c(-c2ccccc2)n1)=NOC [Compound 26] | 5 (herbicidal effect of not less than 90%, or phytotoxicity of 90% or more) |

System: Monochoria vaginalis
Test: Test Example 3 paddy field treatment
Format: in vivo
Conditions: paddy field treatment, wettable powder, active ingredient 1 kg per hectare, 21st day after the dropping, index 0-5
Outline: as §3

| Structure (SMILES) | Herbicidal activity MV |
| --- | --- |
| CON=C(Cn1cc(C)c(-c2ccccc2)n1)C(=O)NC1CCCCC1 [Compound 24] | 5 (herbicidal effect of not less than 90%, or phytotoxicity of 90% or more) |
| C=CCNC(=O)C(Cn1cc(C)c(-c2ccccc2)n1)=NOC [Compound 26] | 5 (herbicidal effect of not less than 90%, or phytotoxicity of 90% or more) |

System: Scirpus juncoides
Test: Test Example 3 paddy field treatment
Format: in vivo
Conditions: paddy field treatment, wettable powder, active ingredient 1 kg per hectare, 21st day after the dropping, index 0-5
Outline: as §3

| Structure (SMILES) | Herbicidal activity SJ |
| --- | --- |
| CON=C(Cn1cc(C)c(-c2ccccc2)n1)C(=O)NC1CCCCC1 [Compound 24] | 4 (herbicidal effect of not less than 70% and less than 90%, or phytotoxicity of 70% or more and less than 90%) |
| C=CCNC(=O)C(Cn1cc(C)c(-c2ccccc2)n1)=NOC [Compound 26] | 5 (herbicidal effect of not less than 90%, or phytotoxicity of 90% or more) |

System: Rice (Oryza sativa)
Test: Test Example 3 paddy field treatment, crop phytotoxicity
Format: in vivo
Conditions: paddy field treatment, transplanted rice Koshihikari, wettable powder, active ingredient 1 kg per hectare, 21st day after the dropping, index 0-5
Outline: as §3

| Structure (SMILES) | Herbicidal activity OS (phytotoxicity to rice) |
| --- | --- |
| CON=C(Cn1cc(C)c(-c2ccccc2)n1)C(=O)NC1CCCCC1 [Compound 24] | 0 (herbicidal effect of not less than 0% and less than 10%, or phytotoxicity of 0% or more and less than 10%) |
| C=CCNC(=O)C(Cn1cc(C)c(-c2ccccc2)n1)=NOC [Compound 26] | 0 (herbicidal effect of not less than 0% and less than 10%, or phytotoxicity of 0% or more and less than 10%) |
